Measurements taken from patent publication US5229109A, “Low toxicity interleukin-2 analogues for use in immunotherapy” (priority 1992, dated 1993).

Key:
[1] = molecular target: T1, intermediate receptor p75 (Homo sapiens, UniProt P14784); settings: Sauve et al., 1991; cited from earlier work
T1 sequence (P14784 27-551): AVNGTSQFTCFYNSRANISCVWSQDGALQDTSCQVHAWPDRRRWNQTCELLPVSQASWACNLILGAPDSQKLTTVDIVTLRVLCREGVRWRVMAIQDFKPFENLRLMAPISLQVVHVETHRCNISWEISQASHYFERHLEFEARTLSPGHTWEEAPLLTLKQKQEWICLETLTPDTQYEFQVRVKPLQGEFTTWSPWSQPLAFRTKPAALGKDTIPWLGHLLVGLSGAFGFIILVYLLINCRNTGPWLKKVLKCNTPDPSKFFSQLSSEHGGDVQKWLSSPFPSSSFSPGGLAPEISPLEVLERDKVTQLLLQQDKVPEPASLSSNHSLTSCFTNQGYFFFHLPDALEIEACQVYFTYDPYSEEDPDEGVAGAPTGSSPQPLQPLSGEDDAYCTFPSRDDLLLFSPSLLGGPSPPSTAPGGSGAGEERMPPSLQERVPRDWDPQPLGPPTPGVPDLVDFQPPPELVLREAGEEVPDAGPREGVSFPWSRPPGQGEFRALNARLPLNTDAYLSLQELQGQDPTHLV
T1 sequence (P31785 23-369 partner): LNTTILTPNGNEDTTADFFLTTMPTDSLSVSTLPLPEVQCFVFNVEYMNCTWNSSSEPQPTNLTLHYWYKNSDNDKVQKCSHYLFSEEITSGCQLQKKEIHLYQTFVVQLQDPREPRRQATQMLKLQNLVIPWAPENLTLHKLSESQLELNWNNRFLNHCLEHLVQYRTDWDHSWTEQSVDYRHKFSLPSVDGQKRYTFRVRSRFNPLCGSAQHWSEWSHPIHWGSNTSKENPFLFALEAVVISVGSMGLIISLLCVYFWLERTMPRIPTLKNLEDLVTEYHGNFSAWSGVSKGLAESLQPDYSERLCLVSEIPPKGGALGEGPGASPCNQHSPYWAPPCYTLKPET

IL-2 receptor p75 = molecular target: T2, IL-2 receptor p75 (Homo sapiens, UniProt P14784); test: IL-2 specific binding assay, intermediate affinity receptor
T2 construct: Each assay contained approximately 6×10^5 cells; endogenous in cells
T2 sequence (P14784 27-551): T1 sequence (P14784 27-551)
T2 sequence (P31785 23-369 partner): T1 sequence (P31785 23-369 partner)
Description: The cells were then incubated for 1 hour at 37° C. and the washing procedure was repeated three times. […] Nonspecific binding was determined by inclusion of 50 nM unlabeled human rIL-2 in the assay. Incubations were carried out in duplicate or triplicate for 20 minutes at 37° C.

[2] = molecular target: T3, low affinity receptor p55 (Homo sapiens, UniProt P01589); settings: Sauve et al., 1991; cited from earlier work
T3 sequence (P01589 22-272): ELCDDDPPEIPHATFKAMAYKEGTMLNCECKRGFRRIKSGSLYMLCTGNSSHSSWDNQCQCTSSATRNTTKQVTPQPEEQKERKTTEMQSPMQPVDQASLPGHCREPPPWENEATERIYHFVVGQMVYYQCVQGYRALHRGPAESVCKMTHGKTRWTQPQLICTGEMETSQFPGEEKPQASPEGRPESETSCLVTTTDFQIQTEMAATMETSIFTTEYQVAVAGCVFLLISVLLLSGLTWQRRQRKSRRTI

[3] = test system: peripheral blood mononuclear cells (TNF-α secretion); test: TNF-α secretion by PBMC, ELISA of LAK culture supernatants; assay type: cell-based, human; settings: for TNF-α decreased: maximal decrease vs native IL-2, supernatants at 24 hour intervals up to 7 days
Description: (§1) The abilities of the same concentrations of IL-2 and the analogues to stimulate peripheral blood mononuclear cells to secrete IL-1β and TNF-α in vitro were first compared. At 24 hour intervals up to 7 days, the LAK culture supernatants from the above-described experiment were collected and tested for IL-1β and TNF-α content using ELISA methodology. Commercially available ELISA kits were purchased from R & D Systems (TNF-α and TNF-β ), Immunotech (IL-1α and IL-1β), and Endogen (IFN-γ). The ELISAs were performed according to the protocols supplied by the manufacturer.
(§2) Fresh peripheral blood mononuclear cells (PBMC) obtained from leukopharesis of normal human donors were isolated over a Ficoll-Hypaque gradient. […] Non-adherent cells were tested for cytotoxicity against Daudi targets by a 4 hour ^51 Cr release assay, with specific lysis being presented as the mean of triplicate values. Cell-free supernatants from 3 day PBMC cultures were analyzed by ELISA for cytokine content.

Daudi targets = test: LAK generation, 4 hour 51Cr release cytotoxicity assay; assay type: cell-based, human; settings: 100:1 effector:target ratio; 0.5 nM native IL-2 or 1 nM mutants
Description: The abilities of optimal concentrations of IL-2 and the analogues to stimulate peripheral blood mononuclear cells to generate lymphokine activated killing (LAK) in vitro were next compared.
as §2

[4] = test system: peripheral blood mononuclear cells (IL-1β secretion); test: IL-1β secretion by PBMC, ELISA of LAK culture supernatants; assay type: cell-based, human; settings: for IL-1β secretion decreased: maximal decrease vs native IL-2, supernatants at 24 hour intervals up to 7 days
Description: as §1, §2

[5] = test system: IL-2 receptor p55 on PBMC; test: FACS analysis of p55 expression on cultured PBMC; assay type: cell-based, human; settings: cultures stimulated for 72 hours
Description: Cultured PBMC were washed with PBS, 1% bovine serum albumin (BSA), and 0.1% sodium azide. To approximately one million cells, FITC-labelled monoclonal antibody against IL-2 receptor p55 or a non-specific control mouse IgG (Becton-Dickinson) was added. Following incubation for 30 minutes, the cells were washed twice using a Sorvall cell washer 2L, then fixed in PBS and 1% paraformaldehyde. The cells were then analyzed on Becton-Dickinson FACScan and results were presented as per cent of gated cells positive for p55 after subtraction of non-specific background fluorescence.

[6] = all time points, p<0.05, 3-way ANOVA

| Substance | affinity for the intermediate receptor p75 [1] | ability to bind IL-2 receptor p75 (IL-2 receptor p75) | binding to the low affinity receptor p55 [2] | TNF-α decreased [3] | % maximal specific lysis (Daudi targets) | IL-1β secretion decreased [4] | TNF-α compared to that produced in response to native IL-2 [3, 6] | percentage of cells expressing p55 [5] | percentage of cells expressing p55 doubled [5] | IL-1β compared to that produced in response to native IL-2 [4, 6] |
| --- | --- | --- | --- | --- | --- | --- | --- | --- | --- | --- |
| R38A | maintained their affinity | maintain their ability to bind | could no longer bind | ≤ 66% | 55% | ≤ 28% |  |  |  |  |
| F42K: recombinant human IL-2 analogue, Phenylalanine (F) at position 42→Lysine (K) | maintained their affinity | maintain their ability to bind | could no longer bind | ≤ 77% | 54% | up to 43% | significantly decreased | 30% | doubled | significantly decreased |
